Data published in the OPERA property sets (Mansouri et al. 2018).

| Compound | boiling point [°C] | melting point [°C] | further results |
| --- | --- | --- | --- |
| CC(c1ccc(Cl)cc1)c1ccc(Cl)cc1 | 320 | 56 |  |
| C=CC(Cl)CCl (stereo unspecified) | 116 | -61 | log10 vapour pressure (mmHg): 1.34; ready biodegradability: not readily biodegradable; log10 BCF (fish): 1.11; log10 biotransformation half-life (days) (fish): -1.28 |
| Nc1ncc(C=O)s1 |  |  | ready biodegradability: readily biodegradable |
| Brc1ccc2c(c1)Cc1ccccc1-2 |  | 114 |  |
| CCCCN(CCCC)CCCN | 205 |  |  |
| CC(=O)C1CCOC1=O (stereo unspecified) |  |  | ready biodegradability: readily biodegradable |
| Cc1ccc(N)c(C)c1 | 214 | -14.3 | log10 vapour pressure (mmHg): -0.876; ready biodegradability: not readily biodegradable |
| c1cc2cccc3c4cccc5cccc(c(c1)c23)c54 |  | 274 | log10 biodegradation half-life (days): 2.95; log10 vapour pressure (mmHg): -8.28; ready biodegradability: not readily biodegradable; log10 biotransformation half-life (days) (fish): -0.06 |
| O=[N+]([O-])c1ccc(Oc2ccc(Cl)cc2Cl)cc1 |  | 70 | log10 Koc (L/kg): 4; ready biodegradability: not readily biodegradable |
| Cc1cc2ccccc2oc1=O | 292 | 91 |  |
| COc1ccc2c(C(=O)c3ccc(Cl)cc3)c(C)n(CC(=O)O)c2c1 |  | 242 |  |
| CCOCC(=O)O | 206 |  |  |
| CC(C)[C@@H]1CC[C@@H](C)CC1=O | 207 | -6 |  |
| CC(C)CC[N+](=O)[O-] | 164 | 97 |  |
| Clc1cccc(-c2c(Cl)cccc2Cl)c1Cl |  |  | log10 biotransformation half-life (days) (fish): 2.18 |
| O=CNC(Nc1ccc(Cl)c(Cl)c1)C(Cl)(Cl)Cl (stereo unspecified) |  | 135 |  |
| C=Cc1ccc(Cl)cc1 | 192 | 15.9 | log10 vapour pressure (mmHg): -0.0885; ready biodegradability: not readily biodegradable |
| C1CCC2NC2C1 (stereo unspecified) | 150 | 21 |  |
| CSB(C)C | 71 | -84 |  |
| Cc1ncc(CO)c(CO)c1O |  | 160 |  |
| CCCCCCCO | 176 | -34 | log10 Henry constant (atm·m³/mol): -4.73; log10 Koc (L/kg): 1.14; log10 vapour pressure (mmHg): -0.665; ready biodegradability: readily biodegradable |

| Compound | boiling point [°C] | melting point [°C] | further results |
| --- | --- | --- | --- |
| COc1ccc(OC)c(Cl)c1 |  |  | ready biodegradability: not readily biodegradable |
| CCCC#CCCCCCC | 198 | -74.7 |  |
| O=C(OCc1ccco1)c1ccco1 |  | 27.5 |  |
| C=CCCCC(C)C | 113 |  | log10 vapour pressure (mmHg): 1.4 |
| Cc1cccc(N)c1C | 222 |  | log10 vapour pressure (mmHg): -1.12; ready biodegradability: not readily biodegradable |
| Cc1ccccc1CC(C)C | 196 | -73.3 |  |
| O=C(O)c1c(F)cccc1Cl |  | 160 |  |
| Cc1cccc(Oc2ccccc2)c1 | 272 |  | ready biodegradability: not readily biodegradable |
| COC(=O)c1ccccc1Br | 252 |  |  |
| Oc1ccc(Cl)c2cccnc12 |  | 130 |  |
| Cc1c(Cl)cc(-c2ccc(O)nn2)cc1Cl |  | 252 |  |
| CCCCCCCCCCCCCCCCCCCCCCCCCCCCCCCCCCCCCCCCCCCC | 548 | 87.5 | ready biodegradability: readily biodegradable |
| c1cc(-c2ccncc2)ccn1 | 305 | 111 | log10 vapour pressure (mmHg): -4.25 |
| Cc1ccc2sccc2c1 |  | 20.5 |  |
| CC(C)=CCl | 68 |  |  |
| CC(=O)Nc1ccc([N+](=O)[O-])cc1 |  | 216 |  |
| CC(C)=CCCC(C)CC(=O)O (stereo unspecified) |  | 257 |  |
| OCCNc1ccccc1 | 280 | 11 | log10 vapour pressure (mmHg): -2.66 |
| CCCCc1ccccc1 | 183 | -87.9 | log10 Koc (L/kg): 3.39; log10 vapour pressure (mmHg): 0.027; ready biodegradability: not readily biodegradable |
| CCCn1c(=O)[nH]c(=O)c2[nH]cnc21 |  | 288 |  |
| Cc1ccc(C(=O)C(C)CN2CCCCC2)cc1 (stereo unspecified) |  | 176 |  |

| Compound | boiling point [°C] | melting point [°C] | further results |
| --- | --- | --- | --- |
| O=C(OCC1CCC2OC2C1)C1CCC2OC2C1 (stereo unspecified) |  | -37 |  |
| O=C(O)C=Cc1ccccc1 |  |  | ready biodegradability: readily biodegradable |
| O=C(O)c1cccc(Cl)c1[N+](=O)[O-] |  | 238 |  |
| Nc1cccc(C(=O)O)c1 |  | 173 | ready biodegradability: not readily biodegradable |
| CCCC=CC(=O)OCC | 174 |  |  |
| O=C(c1ccc(Cl)cc1)c1ccccc1Cl |  | 67 |  |
| Fc1ccc(F)c(F)c1 | 90 |  |  |
| CC[C@@H](C(=O)[C@@H](C)[C@@H](O)[C@H](C)[C@@H]1O[C@@H]([C@@H](CC)C(=O)O)CC[C@@H]1C)[C@H]1O[C@]2(C=C[C@@H](O)[C@]3(CC[C@@](C)([C@H]4CC[C@](O)(CC)[C@H](C)O4)O3)O2)[C@H](C)C[C@@H]1C |  | 113 |  |
| CC(C)=CCC/C(C)=C/CO | 228 |  | log10 vapour pressure (mmHg): -1.52; ready biodegradability: readily biodegradable |
| CCOC(=O)NNC(=O)OCC |  | 135 |  |
| CC(=O)c1ccc(C(F)(F)F)cc1 |  | 31 |  |
| CN1CCNCC1 | 138 | -6 |  |
| CCNCCNCC | 146 |  |  |
| COC(=O)C(C)Cl (stereo unspecified) | 132 |  | ready biodegradability: readily biodegradable |
| CCCOc1ccccc1 | 190 | -27 |  |
| CCN(CC)C(=O)N(CC)CC | 209 |  |  |
| Nc1nc(F)nc2c1ncn2[C@@H]1O[C@H](CO)[C@@H](O)[C@@H]1O |  | 260 |  |
| CCn1cc(C(=O)O)c(=O)c2cc(F)c(N3CCNCC3)cc21 |  | 228 |  |
| CCBr | 38.5 | -119 | log10 Koa: 2.11; log10 vapour pressure (mmHg): 2.67; ready biodegradability: not readily biodegradable |
| C1CC2CCC1CC2 |  |  | log10 vapour pressure (mmHg): 0.523 |
